Values belong to the molecule of their own block, whether it stands above or below them.
Columns and labels:
hERG channel = molecular target: T1, hERG channel (Homo sapiens, UniProt Q12809); experiment: hERG channel inhibition assay (patch-clamp, CHO hERG cells); format: cell-based; settings: for IC50 / IC20: CHO hERG cells, whole-cell patch-clamp; for IC20: human, CHO cells stably expressing hERG; for hERG IC20 / TLR8 IC50 / hERG IC20 / TLR7 IC50 / hERG IC20 / TLR9 IC50: safety ratio; for hERG IC20 / TLR7 IC50: TLR7 IC50 of ER compounds from Table 1; for hERG IC20 / TLR9 IC50: TLR9 IC50 of ER compounds from Table 1
T1 construct: expressed in transfected cells; host or cells: CHO (Chinese hamster ovary)
Procedure: The hERG K^+ channels were cloned in humans and stably expressed in a CHO (Chinese hamster ovary) cell line. CHOhERG cells were used for patch-clamp (voltage-clamp, whole-cell) experiments. Cells were stimulated by a voltage pattern to activate hERG channels and conduct IKhERG currents (rapid delayed outward rectifier potassium current of the hERG channel). After the cells were stabilized for a few minutes, the amplitude and kinetics of IKhERG were recorded at a stimulation frequency of 0.1 Hz (6 bpm). Thereafter, the test compound was added to the preparation at increasing concentrations. For each concentration, an attempt was made to reach a steady-state effect, usually, this was achieved within 3-10 min at which time the next highest concentration was applied. The amplitude and kinetics of IKhERG are recorded in each concentration of the drug which were compared to the control values (taken as 100%). (references: Redfern WS, Carlsson L, Davis AS, Lynch WG, MacKenzie I, Palethorpe S, Siegl PK, Strang I, Sullivan AT, Wallis R, Camm AJ, Hammond TG. 2003; Relationships between preclinical cardiac electrophysiology, clinical QT interval prolongation and torsade de pointes for a broad range of drugs: evidence for a provisional safety margin in drug development. Cardiovasc. Res. 58:32-45, Sanguinetti MC, Tristani-Firouzi M. 2006; hERG potassium channels and cardiac arrhythmia. Nature 440:463-469, Webster R, Leishman D, Walker D. 2002; Towards a drug concentration effect relationship for QT prolongation and torsades de pointes. Curr. Opin. Drug Discov. Devel. 5:116-26).
Table 3. hERG and safety ratio results

[1] = Human microsome stability assay; format: in vitro ADME; settings: 1 µM test compound, 0.5 mg/mL liver microsomal protein, 37 °C
Procedure: The human microsomal stability assay is used for early assessment of metabolic stability of a test compound in human liver microsomes.
Human liver microsomes (Cat.NO.: 452117, Corning, USA;Cat.NO.:H2610, Xenotech, USA) were preincubated with test compound for 10 minutes at 37 °C in 100 mM potassium phosphate buffer, pH 7.4. The reactions were initiated by adding NADPH regenerating system. The final incubation mixtures contained 1 µM test compound, 0.5 mg/mL liver microsomal protein, 1 mM MgClz, 1 mM NADP, 1 unit/mL isocitric dehydrogenase and 6 mM isocitric acid in 100 mM potassium phosphate buffer, pH 7.4. After incubation times of 0, 3, 6, 9, 15 and 30 minutes at 37 °C, 300 µL of cold acetonitrile (including internal standard) was added to 100 µL incubation mixture to terminate the reaction. Following precipitation and centrifugation, the amount of compound remaining in the samples were determined by LC-MS/MS. Controls of no NADPH regenerating system at zero and 30 minutes were also prepared and analyzed. […] Table 6. Human liver microsome stability of the compounds of present invention

T1 sequence (Q12809 whole entry): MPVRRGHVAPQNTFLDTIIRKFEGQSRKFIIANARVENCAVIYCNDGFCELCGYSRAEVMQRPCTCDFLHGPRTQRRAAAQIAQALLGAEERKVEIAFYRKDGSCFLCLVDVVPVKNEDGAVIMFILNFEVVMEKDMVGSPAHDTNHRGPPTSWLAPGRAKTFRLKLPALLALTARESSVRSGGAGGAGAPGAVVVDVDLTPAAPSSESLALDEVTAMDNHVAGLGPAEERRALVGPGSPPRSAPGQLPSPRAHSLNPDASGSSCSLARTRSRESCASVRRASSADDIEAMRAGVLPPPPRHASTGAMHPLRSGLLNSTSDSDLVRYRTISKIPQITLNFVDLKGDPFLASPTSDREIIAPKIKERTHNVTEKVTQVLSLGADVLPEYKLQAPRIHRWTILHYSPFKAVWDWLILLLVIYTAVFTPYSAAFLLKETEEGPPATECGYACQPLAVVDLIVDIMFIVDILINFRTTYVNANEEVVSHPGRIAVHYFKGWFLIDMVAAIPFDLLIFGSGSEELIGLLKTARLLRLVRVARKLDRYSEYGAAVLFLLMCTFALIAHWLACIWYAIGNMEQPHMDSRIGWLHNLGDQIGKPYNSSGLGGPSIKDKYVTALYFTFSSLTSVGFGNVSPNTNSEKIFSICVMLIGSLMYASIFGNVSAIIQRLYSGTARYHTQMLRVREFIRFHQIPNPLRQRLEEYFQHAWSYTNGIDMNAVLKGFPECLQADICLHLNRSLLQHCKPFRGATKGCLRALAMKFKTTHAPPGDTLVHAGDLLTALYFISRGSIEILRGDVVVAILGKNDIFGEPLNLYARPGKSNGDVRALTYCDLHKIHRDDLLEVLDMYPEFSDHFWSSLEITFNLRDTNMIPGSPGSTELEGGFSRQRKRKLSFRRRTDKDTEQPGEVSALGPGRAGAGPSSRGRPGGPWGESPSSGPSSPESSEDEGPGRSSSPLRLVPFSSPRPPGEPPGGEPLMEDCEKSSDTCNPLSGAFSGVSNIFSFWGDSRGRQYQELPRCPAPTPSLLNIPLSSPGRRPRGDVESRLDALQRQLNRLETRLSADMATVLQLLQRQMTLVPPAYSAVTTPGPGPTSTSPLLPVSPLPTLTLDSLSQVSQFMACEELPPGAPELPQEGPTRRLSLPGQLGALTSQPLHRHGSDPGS

SMILES: C[C@@H]1CN(c2ccc(C#N)c3ncccc23)C[C@H](CN2CCN(c3ccc4c(c3)CN(CCO)C4)CC2)O1 [Example 16, 5-[(2S,6R)-2-[[4-[2-(2-hydroxyethyl)isoindolin-5-yl]piperazin-1-yl]methyl]-6-methyl-morpholin-4-yl]quinoline-8-carbonitrile]
IC50 (hERG channel): > 20 µM
IC20 (hERG channel): > 10 µM
hERG IC20 / TLR8 IC50 (hERG channel): >1000.0
hERG IC20 / TLR7 IC50 (hERG channel): >490.2
hERG IC20 / TLR9 IC50 (hERG channel): >110.4

Clearance of Human microsome [1]: 7.83 mL/min/kg
SMILES: C[C@@H]1CN(c2ccc(C#N)c3nccnc23)C[C@H](CN2CCN(c3cc4c(cn3)[C@H](C)NCC4)CC2)O1 (single isomer, unassigned) [Example 85]

Clearance of Human microsome [1]: 6.15 mL/min/kg
SMILES: C[C@@H]1CN(c2ccc(C#N)c3ncccc23)C[C@H](CN2CCN(c3ccc4c(c3)CCNC4CO)CC2)O1 (stereo partly drawn) [Example 24, 5-[(2S,6R)-2-[[4-[1-(hydroxymethyl)-1,2,3,4-tetrahydroisoquinolin-6-yl]piperazin-1-yl]methyl]-6-methyl-morpholin-4-yl]quinoline-8-carbonitrile]

Clearance of Human microsome [1]: 8.84 mL/min/kg
SMILES: C[C@@H]1Cc2cnc(N3CCN(C[C@H]4CN(c5ccc(C#N)c6nccnc56)C[C@@H](C)O4)CC3)cc2CN1 (single isomer, unassigned) [Example 82]

SMILES: C[C@@H]1CN(c2ccc(C#N)c3ncccc23)C[C@H](CN2CCN(c3ccc4c(c3)CCNC4)CC2)O1 [Example 5, 5-[(2R,6S)-2-methyl-6-[[4-(1,2,3,4-tetrahydroisoquinolin-6-yl)piperazin-1-yl]methyl]morpholin-4-yl]quinoline-8-carbonitrile]
IC50 (hERG channel): > 20 µM
IC20 (hERG channel): > 10 µM
hERG IC20 / TLR8 IC50 (hERG channel): >497.5
hERG IC20 / TLR7 IC50 (hERG channel): >320.5
hERG IC20 / TLR9 IC50 (hERG channel): >156.0

SMILES: COc1ccc(N2CCN(C[C@H]3CN(c4ccc(C#N)c5ncccc45)C[C@@H](C)O3)CC2)cc1 [Example R1, 5-[(2S,6R)-2-[[4-(4-methoxyphenyl)piperazin-1-yl]methyl]-6-methyl-morpholin-4-yl]quinoline-8-carbonitrile, reference compound]
IC50 (hERG channel): 2.74 µM
IC20 (hERG channel): 0.879 µM
hERG IC20 / TLR8 IC50 (hERG channel): 6.2
hERG IC20 / TLR7 IC50 (hERG channel): 9.3
hERG IC20 / TLR9 IC50 (hERG channel): 0.1

SMILES: CC1NCc2ncc(N3CCN(C[C@H]4CN(c5ccc(C#N)c6ncccc56)C[C@@H](C)O4)CC3)cc21 (stereo partly drawn) [Example 41, 5-[(2R,6S)-2-methyl-6-[[4-(5-methyl-6,7-dihydro-5H-pyrrolo[3,4-b]pyridin-3-yl)piperazin-1-yl]methyl]morpholin-4-yl]quinoline-8-carbonitrile]
IC50 (hERG channel): > 20 µM
IC20 (hERG channel): > 10 µM
hERG IC20 / TLR8 IC50 (hERG channel): >574.7
hERG IC20 / TLR7 IC50 (hERG channel): >354.6
hERG IC20 / TLR9 IC50 (hERG channel): >166.7

SMILES: C[C@@H]1CN(c2ccc(C#N)c3ncccc23)C[C@H](CN2CCN(c3ccc4c(n3)CNC4)CC2)O1 [Example 30, 5-[(2S,6R)-2-[[4-(6,7-dihydro-5H-pyrrolo[3,4-b]pyridin-2-yl)piperazin-1-yl]methyl]-6-methyl-morpholin-4-yl] quinoline-8-carbonitrile]
IC50 (hERG channel): > 20 µM
IC20 (hERG channel): > 10 µM
hERG IC20 / TLR8 IC50 (hERG channel): >1515.2
hERG IC20 / TLR7 IC50 (hERG channel): >840.3
hERG IC20 / TLR9 IC50 (hERG channel): >246.3

SMILES: C[C@@H]1CN(c2ccc(C#N)c3ncsc23)C[C@H](CN2CCN(c3cnc4c(c3)CNC4)CC2)O1 [Example 8, 7-[(2S,6R)-2-[[4-(6,7-dihydro-5H-pyrrolo[3,4-b]pyridin-3-yl)piperazin-1-yl]methyl]-6-methyl-morpholin-4-yl]-1,3-benzothiazole-4-carbonitrile]
IC50 (hERG channel): > 20 µM
IC20 (hERG channel): > 10 µM
hERG IC20 / TLR8 IC50 (hERG channel): >3333.3
hERG IC20 / TLR7 IC50 (hERG channel): >1020.4
hERG IC20 / TLR9 IC50 (hERG channel): >207.5

Clearance of Human microsome [1]: 6.15 mL/min/kg
SMILES: C[C@@H]1CN(c2ccc(C#N)c3ncccc23)C[C@H](CN2CCN(c3cnc4c(c3)CN[C@H]4C)CC2)O1 (single isomer, unassigned) [Example 67]

Clearance of Human microsome [1]: 8.00 mL/min/kg
SMILES: C[C@@H]1CN(c2ccc(C#N)c3ncccc23)C[C@H](CN2CCN(c3ccc4c(c3)CNC4)C(CO)C2)O1 (stereo partly drawn) [Example 13, 5-[(2S,6R)-2-[[3-(hydroxymethyl)-4-isoindolin-5-yl-piperazin-1-yl]methyl]-6-methyl-morpholin-4-yl]quinoline-8-carbonitrile]

Clearance of Human microsome [1]: 7.50 mL/min/kg
SMILES: C[C@@H]1CN(c2ccc(C#N)c3nccnc23)C[C@H](CN2CCN(c3ccc4c(n3)CN[C@H]4C)CC2)O1 (single isomer, unassigned) [Example 78]

SMILES: C[C@@H]1CN(c2ccc(C#N)c3ncccc23)C[C@H](CN2CCN(c3cnc4c(c3)CNCC4)CC2)O1 [Example 21, 5-[(2R,6S)-2-methyl-6-[[4-(5,6,7,8-tetrahydro-1,6-naphthyridin-3-yl)piperazin-1-yl]methyl]morpholin-4-yl]quinoline-8-carbonitrile]
IC50 (hERG channel): > 20 µM
IC20 (hERG channel): > 10 µM
hERG IC20 / TLR8 IC50 (hERG channel): >1098.9
hERG IC20 / TLR7 IC50 (hERG channel): >900.9
hERG IC20 / TLR9 IC50 (hERG channel): >193.8

SMILES: C[C@@H]1CN(c2ccc(C#N)c3ncccc23)C[C@H](CN2CCN(c3cc4c(cn3)CNCC4)CC2)O1 [Example 19, 5-[(2R,6S)-2-methyl-6-[[4-(5,6,7,8-tetrahydro-2,7-naphthyridin-3-yl)piperazin-1-yl]methyl]morpholin-4-yl]quinoline-8-carbonitrile]
IC50 (hERG channel): > 20 µM
IC20 (hERG channel): > 10 µM
hERG IC20 / TLR8 IC50 (hERG channel): >2283.1
hERG IC20 / TLR7 IC50 (hERG channel): >1118.6
hERG IC20 / TLR9 IC50 (hERG channel): >158.3

Clearance of Human microsome [1]: 6.15 mL/min/kg
SMILES: C[C@@H]1CN(c2ccc(C#N)c3nccnc23)C[C@H](CN2CCN(c3cc4c(cn3)CCNC4)CC2)O1 [Example 80, 8-[(2R,6S)-2-methyl-6-[[4-(5,6,7,8-tetrahydro-2,6-naphthyridin-3-yl)piperazin-1-yl]methyl]morpholin-4-yl]quinoxaline-5-carbonitrile]

SMILES: C[C@@H]1CN(c2ccc(C#N)c3ncccc23)C[C@H](CN2CC3(C2)CN(c2cnc4c(n2)CCNC4)CCO3)O1 [Example 50, 5-[(2R,6S)-2-methyl-6-[[8-(5,6,7,8-tetrahydropyrido[3,4-b]pyrazin-2-yl)-5-oxa-2,8-diazaspiro [3.5]nonan-2-yl]methyl]morpholin-4-yl] quinoline-8-carbonitrile]
IC50 (hERG channel): > 20 µM
IC20 (hERG channel): > 10 µM
hERG IC20 / TLR8 IC50 (hERG channel): >3125.0
hERG IC20 / TLR7 IC50 (hERG channel): >2702.7
hERG IC20 / TLR9 IC50 (hERG channel): > 144.9

Clearance of Human microsome [1]: 6.15 mL/min/kg
SMILES: C[C@@H]1CN(c2ccc(C#N)c3ncccc23)C[C@H](CN2CCN(c3ccc4c(n3)CN[C@H]4C)CC2)O1 (single isomer, unassigned) [Example 63]

Clearance of Human microsome [1]: 6.15 mL/min/kg
SMILES: CC1NCc2cc(N3CCN(C[C@H]4CN(c5ccc(C#N)c6ncccc56)C[C@@H](C)O4)CC3)ccc21 (stereo partly drawn) [Example 28, 5-[(2R,6S)-2-methyl-6-[[4-(1-methylisoindolin-5-yl)piperazin-1-yl]methyl]morpholin-4-yl]quinoline-8-carbonitrile]

SMILES: C[C@@H]1CN(c2ccc(C#N)c3ncccc23)C[C@H](CN2CCN(c3ccc4c(n3)CCNC4)CC2)O1 [Example 14, 5-[(2R,6S)-2-methyl-6-[[4-(5,6,7,8-tetrahydro-1,6-naphthyridin-2-yl)piperazin-1-yl]methyl]morpholin-4-yl]quinoline-8-carbonitrile]
IC50 (hERG channel): > 20 µM
IC20 (hERG channel): 7.07 µM
hERG IC20 / TLR8 IC50 (hERG channel): 1725.4
hERG IC20 / TLR7 IC50 (hERG channel): 673.7
hERG IC20 / TLR9 IC50 (hERG channel): 122.8

SMILES: C[C@@H]1CN(c2ccc(C#N)c3nccnc23)C[C@H](CN2CCN(c3cnc4c(c3)CNC4)CC2)O1 [Example 25, 8-[(2S,6R)-2-[[4-(6,7-dihydro-5H-pyrrolo[3,4-b]pyridin-3-yl)piperazin-1-yl]methyl]-6-methyl-morpholin-4-yl] quinoxaline-5-carbonitrile]
IC50 (hERG channel): > 20 µM
IC20 (hERG channel): > 10 µM
hERG IC20 / TLR8 IC50 (hERG channel): >584.8
hERG IC20 / TLR7 IC50 (hERG channel): >520.8
hERG IC20 / TLR9 IC50 (hERG channel): >111.7

Clearance of Human microsome [1]: 8.31 mL/min/kg
SMILES: C[C@@H]1Cc2cc(N3CCN(C[C@H]4CN(c5ccc(C#N)c6nccnc56)C[C@@H](C)O4)CC3)ncc2CN1 (single isomer, unassigned) [Example 83]

— patent EP3807270B1, “NOVEL HETEROARYL HETEROCYCLYL COMPOUNDS FOR THE TREATMENT OF AUTOIMMUNE DISEASE” (F. Hoffmann-La Roche AG, priority 2018, dated 2019)
